Tests used:
Type in all cases: functional, organism-based
Pseudomonas aeruginosa [1] = experiment: Antibacterial activity against Levofloxacin-resistant Pseudomonas aeruginosa assessed as susceptible isolates at minimum inhibitory concentration of 2 ug/ml by CLSI broth microdilution method; set-up: scale not given: the % may be the effect or the level left
Pseudomonas aeruginosa [2] = experiment: Antibacterial activity against Piperacillin-resistant Pseudomonas aeruginosa assessed as susceptible isolates at minimum inhibitory concentration of 0.5 ug/ml by CLSI broth microdilution method; set-up: scale not given: the % may be the effect or the level left
Pseudomonas aeruginosa [3] = experiment: Antibacterial activity against Piperacillin-resistant Pseudomonas aeruginosa assessed as susceptible isolates at minimum inhibitory concentration of 1 ug/ml by CLSI broth microdilution method; set-up: scale not given: the % may be the effect or the level left
Pseudomonas aeruginosa [4] = experiment: Antibacterial activity against MDR3 Pseudomonas aeruginosa assessed as susceptible isolates at minimum inhibitory concentration of 2 ug/ml by CLSI broth microdilution method; set-up: scale not given: the % may be the effect or the level left
Pseudomonas aeruginosa [5] = experiment: Antibacterial activity against MDR4 Pseudomonas aeruginosa assessed as susceptible isolates at minimum inhibitory concentration of 2 ug/ml by CLSI broth microdilution method; set-up: scale not given: the % may be the effect or the level left
Pseudomonas aeruginosa [6] = experiment: Antibacterial activity against MDR Pseudomonas aeruginosa assessed as susceptible isolates at minimum inhibitory concentration of 2 ug/ml by CLSI broth microdilution method; set-up: scale not given: the % may be the effect or the level left
Pseudomonas aeruginosa [7] = experiment: Antibacterial activity against Pseudomonas aeruginosa assessed as resistant isolates at >=8 ug/ml by CLSI broth microdilution method
Pseudomonas aeruginosa [8] = experiment: Antibacterial activity against tazobactam-resistant Pseudomonas aeruginosa assessed as susceptible isolates at minimum inhibitory concentration of 1 ug/ml by CLSI broth microdilution method; set-up: scale not given: the % may be the effect or the level left
Serratia marcescens [9] = experiment: Antibacterial activity against Serratia marcescens assessed as susceptible isolates at minimum inhibitory concentration of 1 ug/ml by CLSI broth microdilution method; set-up: scale not given: the % may be the effect or the level left
Serratia marcescens [10] = experiment: Antibacterial activity against Serratia marcescens assessed as susceptible isolates at minimum inhibitory concentration of 0.25 ug/ml by CLSI broth microdilution method; set-up: scale not given: the % may be the effect or the level left
Proteus mirabilis [11] = experiment: Antibacterial activity against Proteus mirabilis assessed as susceptible isolates at minimum inhibitory concentration of 16 ug/ml by CLSI broth microdilution method; set-up: scale not given: the % may be the effect or the level left
Proteus mirabilis [12] = experiment: Antibacterial activity against Proteus mirabilis assessed as susceptible isolates at minimum inhibitory concentration of 8 ug/ml by CLSI broth microdilution method; set-up: scale not given: the % may be the effect or the level left
Enterobacter cloacae [13] = experiment: Antibacterial activity against Enterobacter cloacae assessed as susceptible isolates at minimum inhibitory concentration of >16 ug/ml by CLSI broth microdilution method; set-up: scale not given: the % may be the effect or the level left
Enterobacter cloacae [14] = experiment: Antibacterial activity against Enterobacter cloacae assessed as susceptible isolates at minimum inhibitory concentration of 4 ug/ml by CLSI broth microdilution method; set-up: scale not given: the % may be the effect or the level left
Enterobacter cloacae [15] = experiment: Antibacterial activity against Enterobacter cloacae assessed as susceptible isolates at minimum inhibitory concentration of 0.5 ug/ml by CLSI broth microdilution method; set-up: scale not given: the % may be the effect or the level left
Enterobacter cloacae [16] = experiment: Antibacterial activity against Enterobacter cloacae assessed as susceptible isolates at minimum inhibitory concentration of <=0.06 ug/ml by CLSI broth microdilution method; set-up: scale not given: the % may be the effect or the level left
Klebsiella pneumoniae [17] = experiment: Antibacterial activity against ESBL-producing Klebsiella pneumoniae assessed as susceptible isolates at minimum inhibitory concentration of 0.25 ug/ml by CLSI broth microdilution method; set-up: scale not given: the % may be the effect or the level left
Klebsiella pneumoniae [18] = experiment: Antibacterial activity against ESBL-producing Klebsiella pneumoniae assessed as susceptible isolates at minimum inhibitory concentration of 0.12 ug/ml by CLSI broth microdilution method; set-up: scale not given: the % may be the effect or the level left
Pseudomonas aeruginosa [19] = experiment: Antibacterial activity against Pseudomonas aeruginosa assessed as susceptible isolates at minimum inhibitory concentration of 0.25 ug/ml by CLSI broth microdilution method; set-up: scale not given: the % may be the effect or the level left
Escherichia coli [20] = experiment: Antibacterial activity against ESBL-producing Escherichia coli assessed as susceptible isolates at minimum inhibitory concentration of 1 ug/ml by CLSI broth microdilution method; set-up: scale not given: the % may be the effect or the level left
Escherichia coli [21] = experiment: Antibacterial activity against ESBL-producing Escherichia coli assessed as susceptible isolates at minimum inhibitory concentration of 0.25 ug/ml by CLSI broth microdilution method; set-up: scale not given: the % may be the effect or the level left
[22] = test system: Stenotrophomonas maltophilia; experiment: Antibacterial activity against Stenotrophomonas maltophilia assessed as susceptible isolates at minimum inhibitory concentration of 0.12 ug/ml by CLSI broth microdilution method; set-up: scale not given: the % may be the effect or the level left
[23] = test system: Stenotrophomonas maltophilia; experiment: Antibacterial activity against Stenotrophomonas maltophilia assessed as susceptible isolates at minimum inhibitory concentration of 0.5 ug/ml by CLSI broth microdilution method; set-up: scale not given: the % may be the effect or the level left
[24] = test system: Stenotrophomonas maltophilia; experiment: Antibacterial activity against Stenotrophomonas maltophilia assessed as susceptible isolates at minimum inhibitory concentration of 1 ug/ml by CLSI broth microdilution method; set-up: scale not given: the % may be the effect or the level left
[25] = test system: Stenotrophomonas maltophilia; experiment: Antibacterial activity against Stenotrophomonas maltophilia assessed as susceptible isolates at minimum inhibitory concentration of 8 ug/ml by CLSI broth microdilution method; set-up: scale not given: the % may be the effect or the level left
Klebsiella aerogenes [26] = experiment: Antibacterial activity against Enterobacter aerogenes assessed as susceptible isolates at minimum inhibitory concentration of <=0.06 ug/ml by CLSI broth microdilution method; set-up: scale not given: the % may be the effect or the level left
Klebsiella aerogenes [27] = experiment: Antibacterial activity against Enterobacter aerogenes assessed as susceptible isolates at minimum inhibitory concentration of 0.25 ug/ml by CLSI broth microdilution method; set-up: scale not given: the % may be the effect or the level left
Klebsiella aerogenes [28] = experiment: Antibacterial activity against Enterobacter aerogenes assessed as susceptible isolates at minimum inhibitory concentration of 2 ug/ml by CLSI broth microdilution method; set-up: scale not given: the % may be the effect or the level left
Acinetobacter baumannii = experiment: Antibacterial activity against Acinetobacter baumannii assessed as susceptible isolates at minimum inhibitory concentration of 0.12 ug/ml by CLSI broth microdilution method; set-up: scale not given: the % may be the effect or the level left
Pseudomonas aeruginosa [29] = experiment: Antibacterial activity against Amikacin-resistant Pseudomonas aeruginosa assessed as susceptible isolates at minimum inhibitory concentration of 16 ug/ml by CLSI broth microdilution method; set-up: scale not given: the % may be the effect or the level left
Pseudomonas aeruginosa [30] = experiment: Antibacterial activity against Cefepime-resistant Pseudomonas aeruginosa assessed as susceptible isolates at minimum inhibitory concentration of 0.5 ug/ml by CLSI broth microdilution method; set-up: scale not given: the % may be the effect or the level left
Pseudomonas aeruginosa [31] = experiment: Antibacterial activity against Ciprofloxacin-resistant Pseudomonas aeruginosa assessed as susceptible isolates at minimum inhibitory concentration of 0.5 ug/ml by CLSI broth microdilution method; set-up: scale not given: the % may be the effect or the level left
Klebsiella oxytoca = experiment: Antibacterial activity against Klebsiella oxytoca assessed as susceptible isolates at minimum inhibitory concentration of 0.5 ug/ml by CLSI broth microdilution method; set-up: scale not given: the % may be the effect or the level left

Sequence: COLISTIN
- Activity (Pseudomonas aeruginosa [1]): 92.2%
- Activity (Pseudomonas aeruginosa [2]): 1.8%
- Activity (Pseudomonas aeruginosa [3]): 37.5%
- Activity (Pseudomonas aeruginosa [4]): 100%
- Activity (Pseudomonas aeruginosa [5]): 100%
- Activity (Pseudomonas aeruginosa [6]): 100%
- Activity (Pseudomonas aeruginosa [7]): 1.1%
- Activity (Pseudomonas aeruginosa [8]): 37.5%
- Activity (Serratia marcescens [9]): 1.9%
- Activity (Serratia marcescens [10]): 0%
- Activity (Proteus mirabilis [11]): 0.8%
- Activity (Proteus mirabilis [12]): 0%
- Activity (Enterobacter cloacae [13]): 100%
- Activity (Enterobacter cloacae [14]): 84.9%
- Activity (Enterobacter cloacae [15]): 69.9%
- Activity (Enterobacter cloacae [16]): 0%
- Activity (Klebsiella pneumoniae [17]): 10.5%
- Activity (Klebsiella pneumoniae [18]): 0.8%
- Activity (Pseudomonas aeruginosa [19]): 0%
- Activity (Escherichia coli [20]): 97.3%
- Activity (Escherichia coli [21]): 26.1%
- Activity [22]: 0%
- Activity [23]: 4.8%
- Activity [24]: 10.8%
- Activity [25]: 50.6%
- Activity (Klebsiella aerogenes [26]): 0%
- Activity (Klebsiella aerogenes [27]): 18.9%
- Activity (Klebsiella aerogenes [28]): 97.3%
- Activity (Acinetobacter baumannii): 0%
- Activity (Pseudomonas aeruginosa [29]): 97.4%
- Activity (Pseudomonas aeruginosa [30]): 6.8%
- Activity (Pseudomonas aeruginosa [31]): 4.1%
- Activity (Klebsiella oxytoca): 74.1%
